Where two headings read alike, the source gives them in different places.
Tests used:
[1] = system: Mice Kidneys (proximal convoluted tubules); set-up: species or system female Swiss White mice; settings: mouse, in vivo
Description: The protocols for these tests were as follows: Each group contained six female Swiss White mice; the tumored animals were given a transplant of a solid Sarcoma-180 tumor on day 0 and treatment was initiated on day 1; the animals were sacrificed on day 10 and the kidneys removed and prepared for histological evaluation; control groups were non-tumored, non-treated animals, and tumored, non-treated animals. Multiple sections of each kidney were examined. […] The saturation concentration cannot be specified other than an estimate of less than 1 mg/100 ml. A very brief summary of the results are compiled in Table 8. The histopathologic degenerative changes are dose dependent in all cases.

[2] = system: ascites Sarcoma-180 tumor; experiment: chemotherapeutic activity vs ascites Sarcoma-180 tumor, single i.p. injection on day 1 (Table 2 survey); format: in vivo, Swiss White mice; settings: carrier saline
Experimental: The chemotherapeutic activities of the "Platinum Blue" complexes were determined using the ascites Sarcoma-180 tumor in Swiss White mice. The protocols for these tests were as follows: Random bred female Swiss White mice (Spartan Laboratory, Williamston, Mich.) of 18-20 grams weight were randomized in groups of six. The ascites cells were removed from the peritoneal cavities of animals with approximately 10 day old ascites tumors. The cells were washed several times with 0.85% saline and spun down each time in a refrigerated centrifuge for 3-5 minutes at 750 r.p.m. After the blood was removed from the cells, they were diluted with 0.85% saline solution and counted in a hemocytometer. A final dilution of 2×10^7 cells/ml. in saline was made. Each animal received 0.2 ml. of this suspension (4×10^6 cells/animals). This was injected intraperitoneally on day 0 of each test. Two groups (12 animals) were kept as negative controls, and the test was terminated at twice the mean day of death of the negative controls. […] All test compounds were injected i.p. on day one as a 0.5 ml. volume of the compound in a carrier of water, physiologic saline or arachis oil (peanut oil). Soluble compounds were always tested in appropriate solutions, the insoluble ones as a slurry. The slurry was sonicated for periods of up to 10 minutes to insure uniformity of dispersion just prior to injections. […] Retests were performed if a sufficient level of drug toxicity at the highest dose was not reached. Animals still alive at the completion of the tests were considered to have died on the day of evaluation. Animals showing no abdominal distention (by palpation, or visibly) on this day were considered cured.
The compounds tested were usually freshly prepared and purified. The compounds kept for further testing were stored in a vacuum dessicator in a dark refrigerator to prevent deterioration. […] Toxic levels are considered to be that concentration where 2 or more of the 6 animals at the dose died within 8 days of injection.
The letter A indicates the "blue" or first isolated precipitate, the letter B, the "green" or second precipitate.

[3] = system: ascites Sarcoma-180 tumor; experiment: schedule dependency tests of antitumor activity (Table 3); format: in vivo, Swiss White mice; settings: for # of cures / Best % ILS / Dose of Best % ILS: saline
Experimental: The chemotherapeutic activities of the "Platinum Blue" complexes were determined using the ascites Sarcoma-180 tumor in Swiss White mice. The protocols for these tests were as follows: Random bred female Swiss White mice (Spartan Laboratory, Williamston, Mich.) of 18-20 grams weight were randomized in groups of six. The ascites cells were removed from the peritoneal cavities of animals with approximately 10 day old ascites tumors. The cells were washed several times with 0.85% saline and spun down each time in a refrigerated centrifuge for 3-5 minutes at 750 r.p.m. After the blood was removed from the cells, they were diluted with 0.85% saline solution and counted in a hemocytometer. A final dilution of 2×10^7 cells/ml. in saline was made. Each animal received 0.2 ml. of this suspension (4×10^6 cells/animals). This was injected intraperitoneally on day 0 of each test. Two groups (12 animals) were kept as negative controls, and the test was terminated at twice the mean day of death of the negative controls. […] Soluble compounds were always tested in appropriate solutions, the insoluble ones as a slurry. The slurry was sonicated for periods of up to 10 minutes to insure uniformity of dispersion just prior to injections. […] Retests were performed if a sufficient level of drug toxicity at the highest dose was not reached. Animals still alive at the completion of the tests were considered to have died on the day of evaluation. Animals showing no abdominal distention (by palpation, or visibly) on this day were considered cured.

[4] = system: MCDV 12 (Rauscher Leukemia, Virus Induced); experiment: effects on MCDV 12 (Rauscher Leukemia, virus induced) (Table 5); format: in vivo, BALB/C Mice; settings: for Survivors: at 200% ILS
Description: (§1) Tables 4-7, respectively, tabulate the results achieved when employing the complexes of the invention against the L1210, MCDV 12, (Rauscher Leukemia, virus-induced), Ehrlich Ascites and the ADJ PC6A (myeloma) tumors.
^a All experiments were terminated arbitrarily at 200% ILS and
survivors tabulated at that time. All therapy was started on third day
after tumor transplant. Untreated tumor controls died 10-11 days after
transplant. In some instances, efforts to reproduce above results have
shown considerable variability.

Ehrlich Ascites Tumor = experiment: survival times of mice bearing the Ehrlich ascites tumor (Table 6); format: in vivo; settings: 7 mg/kg; for Mean Survival Time (+ S.D.): single i.p. day 3
Description: as §1
^a 6 mice/group; each mouse received 10^7 ascites tumor cells on
day 0; treatment was as a single i. p. injection on day 3.

ADJ/PC6A Tumor = experiment: effects on ADJ/PC6A tumor (Table 7); format: in vivo, Female, C^- Mice; settings: i.p., single dose, 24 days after tumor implant
[5] = system: Escherichia coli-wild type; experiment: anti-microbial activity, growth in test tube cultures (Table 9); format: cell-based
Experimental: The following procedure was utilized to test the anti-microbal activity of the platinum complexes. The tests were performed with Escherichia coli-wild type, growing in test tube cultures. Using standardized techniques, growth in the medium was examined after the incorporation of the various test chemicals, using the increase in the optical density of the medium as against time. The bacteria were also periodically examined under a phase contrast microscope for evidence of elongation (filmentation).

SMILES: [Cl][Pt+2][Cl].[NH-]C1CCCC1.[NH-]C1CCCC1 [cis-dichloro(bis)cyclopentylamineplatinum(II)]
- histopathologic degenerative changes at higher dose levels [1]: generalized vacuolar (hydropic) degeneration of the proximal convoluted tubules
- saturation concentration in saline: less than 1 mg/100 ml

SMILES: N.N.[Cl][Pt][Cl] [cis-dichlorodiammineplatinum(II)]
- Dose of Best % ILS ([2]; single i.p. day 1): 7 mg/kg
- Best % ILS (increase in lifespan) ([2]; single i.p. day 1, max 100%): 49 (S.D ± 2.82) %
- # of cures ([2]; positive control, of 12 animals): 1
- # of cures ([3]; day 1, 1 injection): 1
- Best % ILS ([3]; day 1, 1 injection): 42 (S.D. ± 3.1) %
- Dose of Best % ILS ([3]; day 1, 1 injection): 7 mg/kg
- Best % ILS ([3]; every 5th day, 5 injections): 83%
- Dose of Best % ILS ([3]; every 5th day, 5 injections): 5 mg/kg
- # of cures ([3]; every 5th day, 5 injections, 6 animals per test): 3
- Best % ILS ([3]; every 3 hrs., 8 injections): 86%
- Dose of Best % ILS ([3]; every 3 hrs., 8 injections): 1 mg/kg
- # of cures ([3]; every 3 hrs., 8 injections, 6 animals per test): 5
- animals died within 9 days of start (remainder cured) ([3]; every day, 5 injections, 3 mg/kg): Three
- Best % ILS ([3]; every day, 5 injections): 19%
- Dose of Best % ILS ([3]; every day, 5 injections): 3 mg/kg
- # of cures ([3]; every day, 5 injections, 6 animals per test): 3
- % ILS ([4]; 5 mg/kg × 1): 146%
- Survivors ([4]; 5 mg/kg × 1): 2/3
- % ILS ([4]; 8 mg/kg × 1): 62%
- Survivors ([4]; 8 mg/kg × 1): 0/2
- % ILS ([4]; 16 mg/kg × 1): -15%
- Survivors ([4]; 16 mg/kg × 1): 0/3
- % Increase in Mean Survival Time (Ehrlich Ascites Tumor; first experiment): 307%
- Mean Survival Time (+ S.D.) (Ehrlich Ascites Tumor; first experiment (control 8.3 days)): 33.8 ± 16.9 days
- animals that survived > 60 days (Ehrlich Ascites Tumor; first experiment, 6 mice/group): 2 animals
- % Increase in Mean Survival Time (Ehrlich Ascites Tumor; second experiment): 194%
- Mean Survival Time (+ S.D.) (Ehrlich Ascites Tumor; second experiment (control 10.1 days)): 29.7 ± 4.2 days
- ID 90 (90% Inhibition) (ADJ/PC6A Tumor): 1.6 mg/kg
- histopathologic degenerative changes at higher dose levels [1]: generalized vacuolar (hydropic) degeneration of the proximal convoluted tubules
- Observed Renal Histopathological Changes ([1]; 0.5 mg/kg): normal
- Observed Renal Histopathological Changes ([1]; 1 mg/kg): normal
- Observed Renal Histopathological Changes ([1]; 2 mg/kg): mild degenerative changes (cloudy swelling)
- Observed Renal Histopathological Changes ([1]; 3 mg/kg): mild degenerative changes (cloudy swelling)
- Observed Renal Histopathological Changes ([1]; 7 mg/kg): extensive degenerative changes (hydropic degeneration)
- Optical Density of Bacterial Cultures ([5]; 7 ppm, 1:45 p.m., first run): .74
- Optical Density of Bacterial Cultures ([5]; 7 ppm, 2:45 p.m., first run): .78
- Optical Density of Bacterial Cultures ([5]; 7 ppm, 9:30 a.m., first run): .19
- Optical Density of Bacterial Cultures ([5]; 7 ppm, 10:45 a.m., first run): .31
- Optical Density of Bacterial Cultures ([5]; 7 ppm, 11:45 a.m., first run): .44
- Optical Density of Bacterial Cultures ([5]; 7 ppm, 12:45 p.m., first run): .62
- Optical Density of Bacterial Cultures ([5]; 10 ppm, 1:00 p.m., second run): .49
- Optical Density of Bacterial Cultures ([5]; 10 ppm, 2:00 p.m., second run): .55
- Optical Density of Bacterial Cultures ([5]; 10 ppm, 3:20 p.m., second run): .60
- Optical Density of Bacterial Cultures ([5]; 10 ppm, 9:30 a.m., second run): .12
- Optical Density of Bacterial Cultures ([5]; 10 ppm, 11:00 a.m., second run): .26
- Optical Density of Bacterial Cultures ([5]; 10 ppm, 12:00 p.m., second run): .37

— US4419351A, “Platinum-dioxopyrimidine complexes” (priority 1978, dated 1983)
